Reference: PMC8778818, “Synthesis, Structural Characterization and Anticancer Activity of New 5-Trifluoromethyl-2-thioxo-thiazolo[4,5-d]pyrimidine Derivatives” (Pharmaceuticals, 2022)

Key:
[1] = system: SNB-19; test: NCI-60 screen, CNS Cancer SNB-19; assay type: cell-based, human; conditions: SNB-19, 10^−5 M one dose
[2] = system: A375, C32, DU145, MCF-7/WT, CHO-K1 and HaCaT cell lines; test: MTT cell viability assay, all six cell lines; assay type: cell-based; conditions: mean over the six cell lines; read-out: Mean A: the mean IC50 for the given compound
Procedure: (§1) Twelve compounds (2a-e, 3a-d and 4a-c) at a concentration range of 50–5000 μM were tested for their antiproliferative potential against four human cancer cell lines (A375—melanotic melanoma, C32—amelanotic melanoma, DU145—prostate cancer androgen-independent, MCF-7/WT—breast adenocarcinoma) and two normal cell lines: Chinese Hamster Ovary (CHO-K1) and immortalized human keratinocytes from histologically normal skin (HaCaT).
(§2) To determine the antiproliferative activity of newly synthesized compounds, the following cell lines were used: human melanotic melanoma cell line (A375), human amelanotic melanoma cell line (C32), human breast adenocarcinoma cell line (MCF-7/WT), human prostate cancer androgen-independent (DU145) and two normal cell lines: hamster ovarian (CHO-K1) and immortalized human keratinocytes from histologically normal skin (HaCaT). The cells were obtained from the cell line bank of the Department of Molecular and Cellular Biology, Wroclaw Medical University. A375, C32, MCF-7/WT, DU145 and HaCaT cells were grown in a monolayer cultured in Dulbecco’s Modified Eagle’s Medium (DMEM, Sigma-Aldrich, Poznań, Poland), supplemented with 10% of fetal bovine serum (FBS, Gibco, Paisley, UK) and 1% of antibiotics (penicillin/streptomycin, Sigma-Aldrich) and CHO-K1 were grown in HAM’s F-12 medium (Sigma-Aldrich), supplemented with 10% fetal bovine serum (FBS, Gibco) and 1% of antibiotics (penicillin/streptomycin, Sigma-Aldrich). Cell lines were cultured in the polystyrene flasks 25 or 75 cm^2 (Thermo Fisher Scientific, Waltham, MA, USA), which were stored in 37 °C and 5% CO2 in a humidified 95% atmosphere (SteriCult, Thermo Scientific, Alab). The cell medium was exchanged twice a week. The exponentially growing cells were used throughout the experiments. The cells were rinsed with phosphate-buffered saline (PBS, Sigma-Aldrich) and trypsinized by Trypsin-EDTA 0.25% solution (Sigma-Aldrich).
(§3) The influence of the compounds was performed in a monolayer culture on cancer and normal cells. Compounds were initially dissolved in DMSO; further dilutions of the compound were performed in Dulbecco’s Modified Eagle’s Medium supplemented with 10% FBS. Compounds were tested in a 50–5000 µM concentration range. In the in vitro experiments, the concentrations of DMSO in the final solution of the compounds were used 0.05%; 0.1%; 0.5%; 1%, respectively.
(§4) Cell viability was determined using the MTT colorimetric assay. All cell lines were seeded into 96-well plates to a density of 3 × 10^4 cells/well. After 24 h, the culture supernatants were removed and appropriate dilutions of compounds in the culture medium (200 µL/well) were added to the cells’ monolayer cultures and incubated for an additional 72 h. After 72 h of exposition to the compounds and the removal of the culture medium, cell viability was determined by reducing the yellow dye 3-(4,5-dimethyl-2-thiazol)-2,5-diphenyl-2H-tetrazolium bromide (MTT assay, Sigma Saint Louis, MO, USA; In Vitro Toxicology Assay) to a blue formazan product. The absorbance of the resulting solutions in three duplicate experiments was measured at the wavelength of 560 nm in a microplate reader (EnSpire, Perkin Elmer, Kraków, Poland). MTT assay is a colorimetric method that estimates the rate of metabolism in viable cells. Absorbance is directly proportional to the number of viable cells. All the experiments were performed three times and the mean absorbance values were calculated. The methodology for the evaluation of the growth of human cancer and normal cells was described previously. The cell viability in each group was expressed as a percentage of control (untreated) cells.

[3] = system: A549/ATCC; test: NCI-60 screen, Non-Small Cell Lung Cancer A549/ATCC; assay type: cell-based, human; conditions: 10^−5 M one dose
[4] = system: C32; test: MTT cell viability assay, C32; assay type: cell-based, human; conditions: Homo sapiens; C32, MTT, 72 h, mean ± SD
Procedure: as §1, §2, §3, §4

[5] = system: NCI-H460; test: NCI-60 screen, Non-Small Cell Lung Cancer NCI-H460; assay type: cell-based, human; conditions: NCI-H460, 10^−5 M one dose
[6] = system: SK-MEL-5; test: NCI-60 screen, Melanoma SK-MEL-5; assay type: cell-based, human; conditions: SK-MEL-5, 10^−5 M one dose
[7] = system: MOLT-4; test: NCI-60 screen, Leukemia MOLT-4; assay type: cell-based, human; conditions: MOLT-4, 10^−5 M one dose
[8] = system: MDA-MB-231/ATCC; test: NCI-60 screen, Breast Cancer MDA-MB-231/ATCC; assay type: cell-based; conditions: MDA-MB-231/ATCC, 10^−5 M one dose
[9] = system: HCT-116; test: NCI-60 screen, Colon Cancer HCT-116; assay type: cell-based, human; conditions: HCT-116, 10^−5 M one dose
[10] = system: SF-539; test: NCI-60 screen, CNS Cancer SF-539; assay type: cell-based, human; conditions: SF-539, 10^−5 M one dose
[11] = system: HCT-15; test: NCI-60 screen, Colon Cancer HCT-15; assay type: cell-based; conditions: HCT-15, 10^−5 M one dose
[12] = system: SK-MEL-2; test: NCI-60 screen, Melanoma SK-MEL-2; assay type: cell-based, human; conditions: SK-MEL-2, 10^−5 M one dose
[13] = system: SN12C; test: NCI-60 screen, Renal Cancer SN12C; assay type: cell-based; conditions: 10^−5 M one dose
[14] = system: CAKI-1; test: NCI-60 screen, Renal Cancer CAKI-1; assay type: cell-based, human; conditions: CAKI-1, 10^−5 M one dose
[15] = system: K-562; test: NCI-60 screen, Leukemia K-562; assay type: cell-based, human; conditions: K-562, 10^−5 M one dose
[16] = system: UO-31; test: NCI-60 screen, Renal Cancer UO-31; assay type: cell-based; conditions: UO-31, 10^−5 M one dose
[17] = system: OVCAR-5; test: NCI-60 screen, Ovarian Cancer OVCAR-5; assay type: cell-based, human; conditions: OVCAR-5, 10^−5 M one dose
[18] = system: M14; conditions: M14, 10^−5 M one dose
[19] = system: CCRF-CEM; test: NCI-60 screen, Leukemia CCRF-CEM; assay type: cell-based, human; conditions: 10^−5 M one dose
[20] = system: A498; test: NCI-60 screen, Renal Cancer A498; assay type: cell-based, human; conditions: A498, 10^−5 M one dose

| Compound | Growth of Cells (%) [1] [%] | IC50 [2] [µM] | Growth of Cells (%) [3] [%] | IC50 [4] [µM] | Growth of Cells (%) [5] [%] | Growth of Cells (%) [6] [%] | Growth of Cells (%) [7] [%] | Growth of Cells (%) [8] [%] | Growth of Cells (%) [9] [%] | Growth of Cells (%) [10] [%] | Growth of Cells (%) [11] [%] | Growth of Cells (%) [12] [%] | Growth of Cells (%) [13] [%] | Growth of Cells (%) [14] [%] | Growth of Cells (%) [15] [%] | Growth of Cells (%) [16] [%] | Growth of Cells (%) [17] [%] | Growth of Cells (%) [18] [%] | Growth of Cells (%) [19] [%] | Growth of Cells (%) [20] [%] |
| --- | --- | --- | --- | --- | --- | --- | --- | --- | --- | --- | --- | --- | --- | --- | --- | --- | --- | --- | --- | --- |
| CCNc1nc(C(F)(F)F)nc2c1sc(=S)n2-c1ccccc1 [Compound 4b, 7-(ethylamino)-3-phenyl-5-(trifluoromethyl)[1, 3]thiazolo[4,5-d]pyrimidine-2(3H)-thione] | 106.58 | 476 | 74.36 | 356 ± 15.2 | 100.34 | 87.63 | 81.83 | 85.06 | 94.34 | 100.98 | 94.67 | 88.08 | 100.30 | 93.63 | 102.59 | 103.75 | 112.27 | 107.61 |  |  |
| Fc1ccc(CNc2nc(C(F)(F)F)nc3c2sc(=S)n3-c2ccccc2)cc1 [Compound 4c] | 106.48 | 485 | 98.32 | 485 ± 21.2 | 109.73 | 105.71 | 96.58 | 119.48 | 111.01 | 102.28 | 103.39 | 95.77 | 101.41 | 94.38 | 107.45 | 82.87 | 102.72 | 112.06 | 102.97 | 121.43 |
| O=c1[nH]c(C(F)(F)F)nc2c1sc(=S)n2-c1ccccc1 [Compound 2b, 3-phenyl-2-thioxo-5-(trifluoromethyl)-2,3-dihydro[1, 3]thiazolo[4,5-d]pyrimidin-7(6H)-one] | 102.20 | 468 | 103.88 | 496 ± 20.4 | 123.50 |  | 117.56 | 107.13 | 102.27 | 114.10 | 106.95 | 97.36 | 106.95 | 124.11 | 115.47 | 91.22 | 101.99 | 112.91 | 96.48 | 90.58 |
